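Assay format: 96-well plates, 48-hour exposure. Here, GI50 denotes the concentration required for 50% inhibition of growth. TGI: concentration producing complete growth inhibition.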
Legend:
Experiment in all cases: growth of human tumour cells (NCI), 48 h
[1] = test system: EKVX NSCLC
[2] = test system: HL-60(TB) leukemia
[3] = test system: LOX IMVI melanoma
[4] = test system: NCI-H23 lung
[5] = test system: NCI-H460 lung
[6] = test system: SK-MEL-2 melanoma
[7] = test system: SK-MEL-5 melanoma
[8] = test system: ACHN renal
[9] = test system: BT-549 breast
[10] = test system: MDA-MB-231 breast

Row | Structure (SMILES) | TGI [1] [µM] | TGI [2] [µM] | TGI [3] [µM] | TGI [4] [µM] | TGI [5] [µM] | TGI [6] [µM] | TGI [7] [µM] | TGI [8] [µM] | TGI [9] [µM] | TGI [10] [µM] | GI50 [8] [µM] | GI50 [9] [µM] | GI50 [1] [µM] | GI50 [2] [µM] | GI50 [10] [µM] | GI50 [4] [µM] | GI50 [5] [µM] | GI50 [6] [µM] | GI50 [3] [µM] | GI50 [7] [µM]
1 | CCOC(=O)C1=C(Nc2ccc(Cl)c(Cl)c2)OC/C1=N\NC(=O)Cc1ccccc1 | > 100 | > 100 | > 100 | > 100 | > 100 | > 100 | > 100 | – | – | – | – | – | – | – | – | – | – | – | – | –
2 | COC(=O)C(CC(=O)c1c[nH]c2ccccc12)c1c[nH]c2ccccc12 (configuration not stated) | 74.1 | 49.4 | – | 34 | 37.9 | 44.2 | 32.2 | 37.7 | – | – | – | – | – | – | – | – | – | – | – | –
3 | CC1(C)C=[N+]([O-])C(C)(C)N1O | > 10 | > 10 | – | > 10 | > 10 | > 10 | – | > 10 | > 10 | > 10 | – | – | – | – | – | – | – | – | – | –
4 | CC1(C)C(=O)C=CC2(C)C1CC(O)C1(C)C2CCC2(C)C(c3ccoc3)OC(=O)C3OC321 (configuration not stated) | 33.2 | – | 38.9 | 28.6 | 27.6 | 35.1 | 21.8 | 30.3 | 41.1 | 36.7 | – | – | – | – | – | – | – | – | – | –
5 | CCCCCCCCCCCCCC(=O)NCC(OCC)OCC | > 100 | > 100 | > 100 | > 100 | > 100 | > 100 | > 100 | > 100 | – | – | – | – | – | – | – | – | – | – | – | –
6 | Cc1cccc(N=C2NC(=O)C(CC(=O)Nc3ccc(C)cc3C)S2)c1 (configuration not stated) | > 100 | > 100 | > 100 | > 100 | > 100 | > 100 | > 100 | > 100 | – | – | – | – | – | – | – | – | – | – | – | –
7 | COC(=O)C1Cc2c([nH]c3ccccc23)C(c2ccccc2O)N1Cc1ccccc1 (configuration not stated) | > 31.6 | > 46.4 | > 46.4 | > 46.4 | > 46.4 | > 31.6 | > 46.4 | 39.9 | – | – | – | – | – | – | – | – | – | – | – | –
8 | CC1=C(/C=C/C(C)=C/C=C/C(C)=C/C=C/C=C(C)/C=C/C=C(C)/C=C/C2=C(C)C(=O)C(O)CC2(C)C)C(C)(C)CC(O)C1=O (configuration not stated) | > 100 | > 100 | > 100 | > 100 | > 100 | > 100 | > 100 | > 100 | – | – | – | – | – | – | – | – | – | – | – | –
9 | COc1cc(C2c3cc4c(cc3[C@@H](OCCN(C)C)C3COC(=O)[C@H]23)OCO4)cc(OC)c1O (some centres not stated) | 6.07 | > 100 | 1.27 | 1.18 | 0.441 | 4.03 | 1.42 | 0.197 | – | – | – | – | – | – | – | – | – | – | – | –
10 | NC(=S)N/N=C1\CCCC1C(O)(C(F)(F)Cl)C(F)(F)Cl (configuration not stated) | > 10 | – | > 10 | > 10 | > 10 | > 10 | 7.44 | > 10 | > 10 | > 10 | – | – | – | – | – | – | – | – | – | –
11 | Cc1c(C(=O)CC(=O)C(=O)Nc2cc(Cl)ccc2Cl)[n+](=O)c2ccccc2n1[O-] | > 100 | – | 93.5 | > 100 | 99.5 | > 100 | > 100 | > 100 | – | – | – | – | – | – | – | – | – | – | – | –
12 | O=c1cc(-c2ccccn2)[nH]c2cc(F)ccc12 | > 100 | > 100 | > 100 | > 100 | > 100 | – | > 100 | > 100 | – | – | – | – | – | – | – | – | – | – | – | –
13 | CC[C@H](Nc1nc(N)nc(C2CC2)c1C#N)c1nc2cccc(NCc3ccc(C(=O)NO)cc3)c2c(=O)n1-c1ccccc1 | 3.73 | 5.65 | – | 4.48 | 3.79 | 6.75 | – | 4.58 | 7.84 | 3.86 | 1.85 | 2.5 | 1.75 | 2.35 | 1.42 | 1.98 | 1.7 | 2.44 | – | –
14 | N#Cc1c(C[n+]2ccccc2)c2ccccc2oc1=O | > 100 | – | > 100 | > 100 | > 100 | > 100 | > 100 | > 100 | – | – | – | – | – | – | – | – | – | – | – | –
15 | S=P(N1CCCC1)(N1CC1)N1CC1 | > 100 | > 100 | > 100 | > 100 | > 100 | > 100 | > 100 | > 100 | – | – | – | – | – | – | – | – | – | – | – | –
16 | COc1nc(C)cc2c(=O)n(-c3ccccc3)n(CC(O)CN3CCN(c4ccc(Cl)cc4)CC3)c(=O)c12 (configuration not stated) | > 50 | > 50 | > 50 | > 50 | > 50 | > 50 | > 50 | > 50 | – | > 50 | 43.3 | – | > 50 | > 50 | > 50 | > 50 | > 50 | 43.1 | > 50 | 32.6
17 | O=C(O)c1cccc(/C=C/c2ccccc2)c1 | > 100 | – | > 100 | > 100 | > 100 | > 100 | > 100 | > 100 | > 100 | > 100 | – | – | – | – | – | – | – | – | – | –
18 | COc1ccccc1NC(=O)C1=C(C)NC(C)=C(C(=O)Nc2ccccc2OC)C1c1ccc(N(C)C)cc1 | > 100 | 40.7 | 42.2 | 82.3 | > 100 | 48.2 | 96.7 | > 100 | – | – | – | – | – | – | – | – | – | – | – | –
19 | COC(=O)[C@H]1[C@H]2C[C@@H]3c4[nH]c5cc(OC)ccc5c4CCN3C[C@H]2C[C@@H](OC(=O)/C=C/c2cc(OC)c(OC)c(OC)c2)[C@@H]1OC | > 100 | – | 13.1 | 53 | > 100 | 19.8 | 15.5 | 21.5 | 24.6 | 41.8 | 4.05 | 11.6 | 14.1 | – | 10.6 | 17.6 | 4.82 | 5.73 | 3.31 | 3.66
20 | COc1cc(C2c3cc4c(cc3[C@@H](N(C)C)[C@H]3COC(=O)C23)OCO4)cc(OC)c1O (some centres not stated) | > 100 | > 100 | > 100 | > 100 | > 100 | > 100 | 86.5 | > 100 | – | – | – | – | – | – | – | – | – | – | – | –
21 | COC(=O)c1ccc(C(=O)OC)c2nc3cc(C)ccc3nc12 | > 100 | > 100 | > 100 | > 100 | > 100 | > 100 | > 100 | > 100 | – | – | – | – | – | – | – | – | – | – | – | –
22 | COc1cc(/C=C/c2ccc(OC)c(OC)c2OC)cc(OC)c1OC | > 70.8 | > 68 | 30.8 | 69.2 | 56.2 | 36.1 | 28.5 | > 92.2 | – | – | – | – | – | – | – | – | – | – | – | –

— PubChem BioAssay (NCI)
